Assay results from paper PMC6707612, “Cyclic-di-GMP binds to histidine kinase RavS to control RavS-RavR phosphotransfer and regulates the bacterial lifestyle transition between virulence and swimming” (PLoS Pathogens, 2019).
“Also recorded” adds a separate entry of the source.

Experiments:
RavS^ΔTrM = target: T1, RavS^ΔTrM (Xanthomonas campestris pv. campestris, UniProt Q8P9A6); assay: microscale thermophoresis (MST) binding; conditions: 20 nM fluorescein-labelled nucleotide
T1 sequence (Q8P9A6 47-697): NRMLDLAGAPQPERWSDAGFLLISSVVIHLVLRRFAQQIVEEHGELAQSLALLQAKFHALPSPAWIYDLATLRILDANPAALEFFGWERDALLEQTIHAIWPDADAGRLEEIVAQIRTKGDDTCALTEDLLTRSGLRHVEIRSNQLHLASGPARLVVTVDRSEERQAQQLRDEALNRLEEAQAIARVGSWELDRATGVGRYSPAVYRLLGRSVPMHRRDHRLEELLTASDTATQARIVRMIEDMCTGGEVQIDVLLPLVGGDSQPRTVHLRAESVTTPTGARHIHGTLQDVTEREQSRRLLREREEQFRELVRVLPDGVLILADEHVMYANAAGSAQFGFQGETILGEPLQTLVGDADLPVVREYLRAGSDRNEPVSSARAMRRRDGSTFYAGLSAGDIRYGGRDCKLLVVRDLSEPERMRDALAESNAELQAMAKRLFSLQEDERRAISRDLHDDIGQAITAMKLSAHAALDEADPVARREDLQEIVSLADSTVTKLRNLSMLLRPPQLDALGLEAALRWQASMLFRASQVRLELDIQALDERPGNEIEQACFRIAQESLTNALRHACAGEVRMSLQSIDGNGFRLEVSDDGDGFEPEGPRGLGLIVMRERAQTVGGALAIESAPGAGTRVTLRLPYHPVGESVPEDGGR
Procedure: (a) c-di-GMP enhances RavS-RavR phosphotransfer in vitro. A total of 5 μM RavS^ΔN was autophosphorylated for 15 min by the addition of 10 μCi [γ-^32P]ATP. A total of 15 μM RavR^ΔEAL or RavR^ΔEAL(D496A) was added and incubated for 30 min at 25°C. A total of 100 μM c-di-GMP was added if necessary. The reactions were terminated with 5× SDS loading buffer before autoradiography. The experiment was repeated three times. (b) Time course analyses of the impact of c-di-GMP on the velocity of RavS-RavR phosphotransfer. The autophosphorylation and phosphotransfer reactions were set as mentioned in (a). Various concentrations of c-di-GMP were added to the reactions and isotopic signals (band intensities) of RavS~P were measured after autoradiography. (c–d) c-di-GMP triggered an increase in RavS-RavR phosphotransfer in a dose-dependent manner. (c) Various concentrations of c-di-GMP (0, 5, 10, 15, 30, 50, 75 and 100 μM) were added to the RavS-RavR phosphotransfer reactions. (d) The phosphorylated level of RavS^ΔN~P was quantified by ImageJ and the EC50 value was estimated by Origin 8.5 software. In (b) and (d), the intensity of each data point is the average from three experimental repeats. (e) c-di-GMP triggered increase in RavS-RavR phosphotransfer is highly specific. […] The interaction between RavS^ΔTrM and various nucleotides, including fl-c-di-GMP, fl-cGMP and fl-c-di-AMP, were measured by microscale thermophoresis (MST). A total of 20 nM fluorescein-labelled nucleotides and increasing concentrations of proteins were incubated and measured by MST. The dissociation constant (Kd) was quantified to estimate the binding affinity. […]
The interaction between c-di-GMP nucleotides and various proteins was measured by using MST with a fluorescein-labelled c-di-GMP (2′-Fluo-AHC-c-di-GMP, abbreviated as fl-c-di-GMP; 2′-Fluo-AHC-c-di-AMP, fl-c-di-AMP; 2′-Fluo-AHC-cGMP, fl-cGMP; Biolog, Germany). These chemicals contain carboxyfluorescein that has excitation and emission wavelengths of 497 nm and 520 nm, respectively, which can be detected directly by a MST instrument. […]

RavS^ΔN = target: T2, RavS^ΔN (Xanthomonas campestris pv. campestris, UniProt Q8P9A6); assay: in vitro RavS-RavR phosphotransfer assay (RavS~P level by autoradiography); format: biochemical; conditions: specificity control nucleotides
T2 sequence (Q8P9A6 352-697): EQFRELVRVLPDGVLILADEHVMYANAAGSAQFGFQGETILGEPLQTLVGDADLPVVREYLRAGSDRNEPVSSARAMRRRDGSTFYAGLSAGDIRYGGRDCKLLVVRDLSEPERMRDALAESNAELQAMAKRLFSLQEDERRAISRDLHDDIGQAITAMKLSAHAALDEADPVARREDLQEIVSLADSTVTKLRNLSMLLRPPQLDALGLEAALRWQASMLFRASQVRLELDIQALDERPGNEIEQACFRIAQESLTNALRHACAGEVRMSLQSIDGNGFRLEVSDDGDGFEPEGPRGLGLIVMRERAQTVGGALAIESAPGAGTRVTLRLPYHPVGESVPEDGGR
Procedure: (a) c-di-GMP enhances RavS-RavR phosphotransfer in vitro. A total of 5 μM RavS^ΔN was autophosphorylated for 15 min by the addition of 10 μCi [γ-^32P]ATP. A total of 15 μM RavR^ΔEAL or RavR^ΔEAL(D496A) was added and incubated for 30 min at 25°C. A total of 100 μM c-di-GMP was added if necessary. The reactions were terminated with 5× SDS loading buffer before autoradiography. The experiment was repeated three times. (b) Time course analyses of the impact of c-di-GMP on the velocity of RavS-RavR phosphotransfer. The autophosphorylation and phosphotransfer reactions were set as mentioned in (a). Various concentrations of c-di-GMP were added to the reactions and isotopic signals (band intensities) of RavS~P were measured after autoradiography. (c–d) c-di-GMP triggered an increase in RavS-RavR phosphotransfer in a dose-dependent manner. (c) Various concentrations of c-di-GMP (0, 5, 10, 15, 30, 50, 75 and 100 μM) were added to the RavS-RavR phosphotransfer reactions. (d) The phosphorylated level of RavS^ΔN~P was quantified by ImageJ and the EC50 value was estimated by Origin 8.5 software. In (b) and (d), the intensity of each data point is the average from three experimental repeats. (e) c-di-GMP triggered increase in RavS-RavR phosphotransfer is highly specific. […] (f) RavS specifically interacts with fl-c-di-GMP. The interaction between RavS^ΔTrM and various nucleotides, including fl-c-di-GMP, fl-cGMP and fl-c-di-AMP, were measured by microscale thermophoresis (MST). A total of 20 nM fluorescein-labelled nucleotides and increasing concentrations of proteins were incubated and measured by MST. The dissociation constant (Kd) was quantified to estimate the binding affinity. Each experiment was repeated three times.
An in vitro autophosphorylation assay was conducted as described in our previous study. Purified protein was incubated with 10 μM ATP containing 10 μCi [γ-^32P]ATP (PerkinElmer, USA) in the reaction buffer (50 mM Tris-HCl, pH 7.8, 25 mM NaCl, 25 mM KCl, 5 mM MgCl2, 2 mM DTT) for the indicated time at 28°C. If necessary, c-di-GMP was added to the mixture at the same time as ATP. For the phosphoryl transfer assay, purified RR protein or its derivative was added into the reaction mixture containing the phosphorylated HK. The autophosphorylation or phosphoryl transfer reaction was terminated by adding 5× SDS-PAGE loading buffer. Phosphorylated proteins were separated by 12% SDS-PAGE. After electrophoresis, gels were exposed to a phosphor screen (GE Healthcare) and the autoradiographic signals were detected by a Typhoon FLA7000 (GE Healthcare).

[1] = target: EAL domain of RavR (Xanthomonas campestris pv. campestris); assay: SEC + AUC; purified EAL protein, 15 uM, incubated with 300 uM c-di-GMP in phosphodiesterase reaction buffer (50 mM Tris-HCl pH 7.5, 250 mM NaCl, 25 mM KCl, 10 mM MgCl2, 2 mM DTT) at 4 C for 30 min; Superdex 75 10/300 GL to separate dimer and monomer; molecular weight of each fraction determined by analytical ultracentrifugation

| Compound | impact on RavS phosphotransferase activity / velocity of RavS-RavR phosphotransfer (RavS^ΔN) | further results |
| --- | --- | --- |
| 2′-Fluo-AHC-cGMP [fl-cGMP] |  | Kd (RavS^ΔTrM; read-out: dissociation constant (Kd)): 64.4 ± 9.43 µM |
| Nc1nc2c(ncn2[C@@H]2O[C@H](COP(=O)(O)O)[C@@H](O)[C@H]2O)c(=O)[nH]1 [GMP] | did not affect; also recorded: did not have any impact |  |
| Nc1nc2c(ncn2[C@@H]2O[C@H](COP(=O)(O)OP(=O)(O)OP(=O)(O)O)[C@@H](O)[C@H]2O)c(=O)[nH]1 [GTP] | did not affect; also recorded: did not have any impact |  |
| Nc1ncnc2c1ncn2[C@@H]1O[C@@H]2COP(=O)(O)O[C@H]3[C@@H](O)[C@H](n4cnc5c(N)ncnc54)O[C@@H]3COP(=O)(O)O[C@H]2[C@H]1O [c-di-AMP] | did not affect; also recorded: did not have any impact |  |
| EAL domain of RavR (domain or fragment) |  | stoichiometry N [1]: 2 |
| Nc1nc2c(ncn2[C@@H]2O[C@@H]3COP(=O)(O)O[C@H]3[C@H]2O)c(=O)[nH]1 [cGMP] | did not affect; also recorded: did not have any impact |  |
| 2′-Fluo-AHC-c-di-AMP [fl-c-di-AMP] |  | dissociation constant (Kd) (RavS^ΔTrM): no binding; also recorded: completely failed to bind |
